Assay results reported in PubChem BioAssay AID330 (DTP/NCI, 2004).
Several values for one entry are separate records, joined by “and”; a condition that tells them apart may be missing. Equal values may be shown once. Toxic doses and inconclusive results are not listed.

Test system: P388 leukemia ip, CD2F1 mice, survival T/C
Assay: NCI In Vivo Anticancer Drug Screen. Data for tumor model P388 Leukemia (intraperitoneal) in CD2F1 (CDF1) mice
Details: endpoint: median survival time, higher = longer survival
Outline: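 Mice carrying the transplanted tumor received test compound or vehicle. Survival was recorded in each group, and the value is the treated-group measurement divided by that of the vehicle-treated control group.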

[1] = dose: 50.0 mg/kg/injection, schedule: Q01DX009 (ip), vehicle: saline with Tween-80
[2] = dose: 100.0 mg/kg/injection, schedule: Q01DX009 (ip), vehicle: saline with Tween-80
[3] = dose: 50.0 mg/kg/injection, schedule: Q01DX009 (ip), vehicle: saline
[4] = dose: 25.0 mg/kg/injection, schedule: Q01DX009 (ip), vehicle: saline
[5] = dose: 100.0 mg/kg/injection, schedule: Q01DX009 (ip), vehicle: saline
[6] = dose: 60.0 mg/kg/injection, schedule: Q01DX005 (ip), vehicle: saline with Tween-80
[7] = dose: 120.0 mg/kg/injection, schedule: Q01DX005 (ip), vehicle: saline with Tween-80
[8] = dose: 240.0 mg/kg/injection, schedule: Q01DX005 (ip), vehicle: saline with Tween-80

For `CC1(C)C(=O)C=CC2(C)C1CC(=O)C1(C)C2CCC2(C)C(c3ccoc3)OC(=O)C3OC321` (centres undefined), the T/C (dose: 1.5 mg/kg/injection, schedule: Q01DX009 (ip), vehicle: Klucel (hydroxypropylcellulose) (HPC)) was 98 % of control and 102 % of control, the T/C (dose: 3.0 mg/kg/injection, schedule: Q01DX009 (ip), vehicle: Klucel (hydroxypropylcellulose) (HPC)) was 98 % of control and 102 % of control and the T/C (dose: 6.0 mg/kg/injection, schedule: Q01DX009 (ip), vehicle: Klucel (hydroxypropylcellulose) (HPC)) was 91 % of control and 96 % of control. For the same compound, the T/C (dose: 12.0 mg/kg/injection, schedule: Q01DX009 (ip), vehicle: Klucel (hydroxypropylcellulose) (HPC)) was 102 % of control and 96 % of control and the T/C (dose: 24.0 mg/kg/injection, schedule: Q01DX009 (ip), vehicle: Klucel (hydroxypropylcellulose) (HPC)) was 100 % of control and 102 % of control.

With `CC(=O)Nc1ccc(/C=C/c2ccc(N=C=S)cc2S(=O)(=O)O)c(S(=O)(=O)O)c1` the T/C [1] was 110 % of control and the T/C [2] was 110 % of control.

With `CC1SC2(C(=O)Nc3ccccc32)N(c2ccc(O)cc2)C1=O` (centres undefined) the T/C (dose: 60.0 mg/kg/injection, schedule: Q01DX005 (ip), vehicle: Klucel (hydroxypropylcellulose) (HPC)) was 91 % of control, the T/C (dose: 120.0 mg/kg/injection, schedule: Q01DX005 (ip), vehicle: Klucel (hydroxypropylcellulose) (HPC)) was 100 % of control and the T/C (dose: 240.0 mg/kg/injection, schedule: Q01DX005 (ip), vehicle: Klucel (hydroxypropylcellulose) (HPC)) was 94 % of control.

`O=C(OC[P+](c1ccccc1)(c1ccccc1)c1ccccc1)c1ccccc1` was tested, and the T/C [3] was 89 % of control.

In the case of `CC(=O)C(=N/O)/C(C)=N/NC(=O)CC#N`, the T/C (dose: 100.0 mg/kg/injection, schedule: Q04DX009 (ip), vehicle: saline) is reported as 101 % of control and the T/C (dose: 200.0 mg/kg/injection, schedule: Q04DX009 (ip), vehicle: saline) is reported as 100 % of control.

In the case of `CN1CCN(CN2C(=O)C3C4C=CC(C3C2=O)C2C3C(=O)N(CN5CCN(C)CC5)C(=O)C3C42)CC1` (centres undefined), the T/C (dose: 6.25 mg/kg/injection, schedule: Q01DX009 (ip), vehicle: water) is reported as 103 % of control, the T/C (dose: 7.5 mg/kg/injection, schedule: Q01DX005 (ip), vehicle: water) is reported as 100 % of control and the T/C (dose: 7.5 mg/kg/injection, schedule: Q01DX009 (ip), vehicle: water) is reported as 99 % of control. For the same compound, the T/C (dose: 12.5 mg/kg/injection, schedule: Q01DX009 (ip), vehicle: water) was 104 % of control, the T/C (dose: 15.0 mg/kg/injection, schedule: Q01DX005 (ip), vehicle: water) was 101 % of control and 96 % of control and the T/C (dose: 15.0 mg/kg/injection, schedule: Q01DX009 (ip), vehicle: water) was 105 % of control. The T/C (dose: 24.8 mg/kg/injection, schedule: Q01DX009 (ip), vehicle: water) was 113 % of control, the T/C [4] was 99 % of control and the T/C (dose: 25.0 mg/kg/injection, schedule: Q01DX009 (ip), vehicle: water) was 104 % of control. The T/C (dose: 26.8 mg/kg/injection, schedule: Q01DX009 (ip), vehicle: water) was 106 % of control and 118 % of control, the T/C (dose: 30.0 mg/kg/injection, schedule: Q01DX005 (ip), vehicle: water) was 107 % of control and 119 % of control and the T/C (dose: 30.0 mg/kg/injection, schedule: Q01DX009 (ip), vehicle: water) was 116 % of control and 121 % of control. The T/C (dose: 44.6 mg/kg/injection, schedule: Q01DX009 (ip), vehicle: water) was 151 % of control, the T/C [3] was 106 % of control and the T/C (dose: 60.0 mg/kg/injection, schedule: Q01DX005 (ip), vehicle: water) was 151 % of control. The T/C (dose: 60.0 mg/kg/injection, schedule: Q01DX009 (ip), vehicle: water) was 165 % of control and 161 % of control, the T/C (dose: 68.8 mg/kg/injection, schedule: Q01DX009 (ip), vehicle: water) was 172 % of control and the T/C (dose: 74.4 mg/kg/injection, schedule: Q01DX009 (ip), vehicle: water) was 164 % of control and 190 % of control. For the same compound, the T/C [5] was 211 % of control, the T/C (dose: 100.0 mg/kg/injection, schedule: Q01DX009 (ip), vehicle: water) was 200 % of control and 207 % of control and the T/C (dose: 120.0 mg/kg/injection, schedule: Q01DX009 (ip), vehicle: water) was 111 % of control. The T/C (dose: 124.0 mg/kg/injection, schedule: Q01DX009 (ip), vehicle: water) was 105 % of control.

`C[Si](C)(C)c1ccccn1` was tested, and the T/C [6] was 108 % of control, the T/C [7] was 103 % of control and the T/C [8] was 113 % of control.

For `CC(O)Cn1nnc2ccccc2c1=O` (centres undefined), the T/C (dose: 50.0 mg/kg/injection, schedule: Q01DX005 (ip), vehicle: saline with Tween-80) was 107 % of control, the T/C (dose: 100.0 mg/kg/injection, schedule: Q01DX005 (ip), vehicle: saline with Tween-80) was 105 % of control and the T/C (dose: 200.0 mg/kg/injection, schedule: Q01DX005 (ip), vehicle: saline with Tween-80) was 112 % of control.

`O=C(COc1ccc(Cl)cc1)OC(=O)COc1ccc(Cl)cc1` was tested, and the T/C (dose: 25.0 mg/kg/injection, schedule: Q01DX009 (ip), vehicle: other) was 110 % of control, the T/C (dose: 50.0 mg/kg/injection, schedule: Q01DX009 (ip), vehicle: other) was 112 % of control and the T/C (dose: 100.0 mg/kg/injection, schedule: Q01DX009 (ip), vehicle: other) was 110 % of control. For the same compound, the T/C (dose: 200.0 mg/kg/injection, schedule: Q01DX009 (ip), vehicle: other) was 106 % of control.

With `CC(C)COP(=O)([O-])OCC[N+](C)(C)C` the T/C (dose: 100.0 mg/kg/injection, schedule: Q01DX001 (ip), vehicle: Klucel (hydroxypropylcellulose) (HPC)) was 104 % of control, the T/C (dose: 200.0 mg/kg/injection, schedule: Q01DX001 (ip), vehicle: Klucel (hydroxypropylcellulose) (HPC)) was 98 % of control and the T/C (dose: 400.0 mg/kg/injection, schedule: Q01DX001 (ip), vehicle: Klucel (hydroxypropylcellulose) (HPC)) was 100 % of control.

In the case of `CC(C)(C)C(=O)CS(=O)(=O)CC(=O)C(C)(C)C`, the T/C (dose: 25.0 mg/kg/injection, schedule: Q01DX009 (ip), vehicle: saline with Tween-80) is reported as 112 % of control, the T/C [1] is reported as 108 % of control and the T/C [2] is reported as 103 % of control.

For `COc1ccc2c(NCCCCCCCCNc3c4ccc(OC)cc4nc4c(OC)cccc34)c3cccc(OC)c3nc2c1`, the T/C (dose: 0.63 mg/kg/injection, schedule: Q01DX009 (ip), vehicle: other) was 166 % of control, the T/C (dose: 2.5 mg/kg/injection, schedule: Q01DX009 (ip), vehicle: other) was 120 % of control and the T/C (dose: 5.0 mg/kg/injection, schedule: Q01DX009 (ip), vehicle: other) was 86 % of control.

With `Cn1c(C2(C)C(=O)NC(=O)c3cnccc32)cc2ccccc21` (centres undefined) the T/C (dose: 100.0 mg/kg/injection, schedule: Q04DX002 (ip), vehicle: Klucel (hydroxypropylcellulose) (HPC)) was 103 % of control and the T/C (dose: 200.0 mg/kg/injection, schedule: Q04DX002 (ip), vehicle: Klucel (hydroxypropylcellulose) (HPC)) was 92 % of control.

In the case of `COC(=O)c1[nH]cnc1/N=N\N(CCF)CCF`, the T/C (dose: 44.0 mg/kg/injection, schedule: Q04DX003 (ip), vehicle: saline with Tween-80) is reported as 155 % of control and the T/C (dose: 66.0 mg/kg/injection, schedule: Q04DX003 (ip), vehicle: saline with Tween-80) is reported as 110 % of control.

With `CCOC(=O)C(NC(C)=O)(C(=O)OCC)C1CCCC1=O` (centres undefined) the T/C (dose: 60.0 mg/kg/injection, schedule: Q01DX005 (ip), vehicle: saline) was 94 % of control, the T/C (dose: 120.0 mg/kg/injection, schedule: Q01DX005 (ip), vehicle: saline) was 96 % of control and the T/C (dose: 240.0 mg/kg/injection, schedule: Q01DX005 (ip), vehicle: saline) was 100 % of control.

In the case of `CC(C)S(=O)(=O)n1c(N)nc2ccc(/C(=N/O)c3ccccc3)cc21`, the T/C (dose: 50.0 mg/kg/injection, schedule: Q01DX005 (ip), vehicle: Klucel (hydroxypropylcellulose) (HPC)) is reported as 100 % of control, the T/C (dose: 100.0 mg/kg/injection, schedule: Q01DX005 (ip), vehicle: Klucel (hydroxypropylcellulose) (HPC)) is reported as 101 % of control and the T/C (dose: 200.0 mg/kg/injection, schedule: Q01DX005 (ip), vehicle: Klucel (hydroxypropylcellulose) (HPC)) is reported as 95 % of control.

For `Cc1noc2c1C(=O)c1ccccc1SC2`, the T/C [6] was 103 % of control, the T/C [7] was 94 % of control and the T/C [8] was 105 % of control.

In the case of `Cc1nc(N)nc(N)c1N1CCN(c2ccc(C(=O)NC(CCC(=O)O)C(=O)O)cc2)CC1` (centres undefined), the T/C (dose: 1.56 mg/kg/injection, schedule: Q01DX005 (ip), vehicle: water) is reported as 111 % of control, the T/C (dose: 12.5 mg/kg/injection, schedule: Q01DX005 (ip), vehicle: distilled water + Tween-80) is reported as 168 % of control and the T/C (dose: 12.5 mg/kg/injection, schedule: Q01DX005 (ip), vehicle: water) is reported as 150 % of control. The T/C (dose: 25.0 mg/kg/injection, schedule: Q01DX005 (ip), vehicle: distilled water + Tween-80) was 176 % of control, the T/C (dose: 25.0 mg/kg/injection, schedule: Q01DX005 (ip), vehicle: water) was 176 % of control and the T/C (dose: 50.0 mg/kg/injection, schedule: Q01DX005 (ip), vehicle: water) was 222 % of control. For the same compound, the T/C (dose: 100.0 mg/kg/injection, schedule: Q01DX005 (ip), vehicle: distilled water + Tween-80) was 87 % of control.

In the case of `Cn1cnccc1=O`, the T/C (dose: 6.25 mg/kg/injection, schedule: Q01DX009 (ip), vehicle: saline) is reported as 102 % of control, the T/C (dose: 12.5 mg/kg/injection, schedule: Q01DX009 (ip), vehicle: saline) is reported as 103 % of control and the T/C [4] is reported as 106 % of control. The T/C [3] was 106 % of control and the T/C [5] was 103 % of control.
